# Assay results as given in PubChem BioAssay (NCI).
#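 At the GI50, growth is halved. TGI: total growth inhibition.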
# Key:
# Assay in all cases: DTP human tumour cell line panel, 384-well format
# HT29 colon = tested on: HT29 colon
# K-562 leukemia = tested on: K-562 leukemia
# SF-268 CNS = tested on: SF-268 CNS
# KM12 colon = tested on: KM12 colon
# HS 578T breast = tested on: HS 578T breast
# HCC-2998 colon = tested on: HCC-2998 colon
# U251 glioblastoma = tested on: U251 glioblastoma
# TK-10 renal = tested on: TK-10 renal
# OVCAR-4 ovarian = tested on: OVCAR-4 ovarian
# M14 melanoma = tested on: M14 melanoma
# MDA-MB-435 melanoma = tested on: MDA-MB-435 melanoma
# SK-MEL-5 melanoma = tested on: SK-MEL-5 melanoma
# COLO 205 colon = tested on: COLO 205 colon
# UO-31 renal = tested on: UO-31 renal
# SNB-75 CNS = tested on: SNB-75 CNS
# HCT-116 colon = tested on: HCT-116 colon
# T-47D breast = tested on: T-47D breast
# NCI-H23 lung = tested on: NCI-H23 lung
# EKVX NSCLC = tested on: EKVX NSCLC
# SF-539 CNS = tested on: SF-539 CNS
# MALME-3M melanoma = tested on: MALME-3M melanoma
# SW-620 colon = tested on: SW-620 colon
# HCT-15 colon = tested on: HCT-15 colon
# A549 NSCLC = tested on: A549 NSCLC
# ACHN renal = tested on: ACHN renal
# OVCAR-5 ovarian = tested on: OVCAR-5 ovarian
# NCI-H460 NSCLC = tested on: NCI-H460 NSCLC
# BT-549 breast = tested on: BT-549 breast
# SK-OV-3 ovarian = tested on: SK-OV-3 ovarian
# UACC-257 melanoma = tested on: UACC-257 melanoma
# NCI/ADR-RES ovarian = tested on: NCI/ADR-RES ovarian
# PC-3 prostate = tested on: PC-3 prostate
# OVCAR-3 ovarian = tested on: OVCAR-3 ovarian
# 786-0 renal = tested on: 786-0 renal
# CAKI-1 renal = tested on: CAKI-1 renal
# SF-295 CNS = tested on: SF-295 CNS
# MCF7 breast = tested on: MCF7 breast
# HOP-62 NSCLC = tested on: HOP-62 NSCLC
# OVCAR-8 ovarian = tested on: OVCAR-8 ovarian
# LOX IMVI melanoma = tested on: LOX IMVI melanoma
# RPMI-8226 leukemia = tested on: RPMI-8226 leukemia
# MOLT-4 leukemia = tested on: MOLT-4 leukemia
# HL-60(TB) leukemia = tested on: HL-60(TB) leukemia
# DU-145 prostate = tested on: DU-145 prostate
# HOP-92 NSCLC = tested on: HOP-92 NSCLC
# CCRF-CEM leukemia = tested on: CCRF-CEM leukemia
# MDA-MB-468 breast = tested on: MDA-MB-468 breast
# RXF 393 renal = tested on: RXF 393 renal
# IGROV1 ovarian = tested on: IGROV1 ovarian
# NCI-H322M lung = tested on: NCI-H322M lung
# NCI-H226 lung = tested on: NCI-H226 lung
# UACC-62 melanoma = tested on: UACC-62 melanoma
structure (smiles),measurement,setting,value
COc1ncc(-c2ccc3nccc(-c4ccnnc4)c3c2)cc1NS(=O)(=O)c1ccc(F)cc1F,GI50,HT29 colon,< 10 nM
same,TGI,HT29 colon,1410 nM
same,GI50,K-562 leukemia,44.2 nM
same,TGI,K-562 leukemia,12500 nM
same,GI50,SF-268 CNS,< 10 nM
same,TGI,SF-268 CNS,< 10 nM
same,GI50,KM12 colon,21.9 nM
same,TGI,KM12 colon,2190 nM
same,GI50,HS 578T breast,< 10 nM
same,TGI,HS 578T breast,17.3 nM
same,GI50,HCC-2998 colon,14.3 nM
same,TGI,HCC-2998 colon,912 nM
same,GI50,U251 glioblastoma,21.1 nM
same,TGI,U251 glioblastoma,1270 nM
same,GI50,TK-10 renal,< 10 nM
same,TGI,TK-10 renal,251 nM
same,GI50,OVCAR-4 ovarian,25.2 nM
same,TGI,OVCAR-4 ovarian,480 nM
same,GI50,M14 melanoma,< 10 nM
same,TGI,M14 melanoma,1070 nM
same,GI50,MDA-MB-435 melanoma,18.2 nM
same,TGI,MDA-MB-435 melanoma,1130 nM
same,GI50,SK-MEL-5 melanoma,< 10 nM
same,TGI,SK-MEL-5 melanoma,43.6 nM
same,GI50,COLO 205 colon,< 10 nM
same,TGI,COLO 205 colon,125 nM
same,GI50,UO-31 renal,< 10 nM
same,TGI,UO-31 renal,137 nM
same,GI50,SNB-75 CNS,< 10 nM
same,TGI,SNB-75 CNS,14.2 nM
same,GI50,HCT-116 colon,13.3 nM
same,TGI,HCT-116 colon,1170 nM
same,GI50,T-47D breast,< 10 nM
same,TGI,T-47D breast,< 10 nM
same,GI50,NCI-H23 lung,< 10 nM
same,TGI,NCI-H23 lung,2520 nM
same,GI50,EKVX NSCLC,< 10 nM
same,TGI,EKVX NSCLC,98 nM
same,GI50,SF-539 CNS,13.8 nM
same,TGI,SF-539 CNS,103 nM
same,GI50,MALME-3M melanoma,< 10 nM
same,TGI,MALME-3M melanoma,26.4 nM
same,GI50,SW-620 colon,35.4 nM
same,TGI,SW-620 colon,1500 nM
same,GI50,HCT-15 colon,< 10 nM
same,TGI,HCT-15 colon,2960 nM
same,GI50,A549 NSCLC,< 10 nM
same,TGI,A549 NSCLC,101 nM
same,GI50,ACHN renal,< 10 nM
same,TGI,ACHN renal,> 100000 nM
same,GI50,OVCAR-5 ovarian,< 10 nM
same,TGI,OVCAR-5 ovarian,1130 nM
same,GI50,NCI-H460 NSCLC,< 10 nM
same,TGI,NCI-H460 NSCLC,51.5 nM
same,GI50,BT-549 breast,< 10 nM
same,TGI,BT-549 breast,48.3 nM
same,GI50,SK-OV-3 ovarian,< 10 nM
same,TGI,SK-OV-3 ovarian,51.3 nM
same,GI50,UACC-257 melanoma,13.3 nM
same,TGI,UACC-257 melanoma,87.3 nM
same,GI50,NCI/ADR-RES ovarian,43 nM
same,TGI,NCI/ADR-RES ovarian,1650 nM
same,GI50,PC-3 prostate,< 10 nM
same,TGI,PC-3 prostate,97.6 nM
same,GI50,OVCAR-3 ovarian,< 10 nM
same,TGI,OVCAR-3 ovarian,110 nM
same,GI50,786-0 renal,17.1 nM
same,TGI,786-0 renal,276 nM
same,GI50,CAKI-1 renal,< 10 nM
same,TGI,CAKI-1 renal,106 nM
same,GI50,SF-295 CNS,< 10 nM
same,TGI,SF-295 CNS,54.1 nM
same,GI50,MCF7 breast,< 10 nM
same,TGI,MCF7 breast,73400 nM
same,GI50,HOP-62 NSCLC,25.7 nM
same,TGI,HOP-62 NSCLC,635 nM
same,GI50,OVCAR-8 ovarian,23.4 nM
same,TGI,OVCAR-8 ovarian,1850 nM
same,GI50,LOX IMVI melanoma,12.3 nM
same,TGI,LOX IMVI melanoma,135 nM
same,GI50,RPMI-8226 leukemia,15.5 nM
same,TGI,RPMI-8226 leukemia,54.4 nM
same,GI50,MOLT-4 leukemia,< 10 nM
same,TGI,MOLT-4 leukemia,< 10 nM
same,GI50,HL-60(TB) leukemia,< 10 nM
same,TGI,HL-60(TB) leukemia,10.7 nM
same,GI50,DU-145 prostate,21.4 nM
same,TGI,DU-145 prostate,> 100000 nM
same,GI50,HOP-92 NSCLC,< 10 nM
same,TGI,HOP-92 NSCLC,46 nM
same,GI50,CCRF-CEM leukemia,< 10 nM
same,TGI,CCRF-CEM leukemia,< 10 nM
same,GI50,MDA-MB-468 breast,< 10 nM
same,TGI,MDA-MB-468 breast,11.7 nM
same,GI50,RXF 393 renal,< 10 nM
same,TGI,RXF 393 renal,25.3 nM
same,GI50,IGROV1 ovarian,< 10 nM
same,TGI,IGROV1 ovarian,< 10 nM
same,GI50,NCI-H322M lung,11.1 nM
same,TGI,NCI-H322M lung,723 nM
same,GI50,NCI-H226 lung,18.5 nM
same,TGI,NCI-H226 lung,2400 nM
same,GI50,UACC-62 melanoma,< 10 nM
same,TGI,UACC-62 melanoma,33.3 nM
